Results reported in ChEMBL document CHEMBL1201862, “PubChem BioAssay data set” (2004).
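Five compound concentrations were applied to cells in 96-well plates for 48 hours; endpoints were derived by simple linear interpolation of the resulting dose-response curve. GI50 = concentration required for 50% inhibition of growth.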 Activity calls are given as the source filed them. Rule as the data show it: active = GI50 up to about 1.1 µM and inactive = higher.

Columns and labels:
Experiment in all cases: inhibition of tumour cell growth, NCI panel, 48 h
[1] = system: BT-549
[2] = system: DU-145
[3] = system: HOP-92
[4] = system: Hs-578T
[5] = system: M14
[6] = system: MCF7
[7] = system: MDA-MB-435
[8] = system: MOLT-4
[9] = system: NCI-H226
[10] = system: NCI-H23
[11] = system: OVCAR-5
[12] = system: SF-295
[13] = system: SK-MEL-28
[14] = system: SNB-19
[15] = system: SNB-75
[16] = system: SW-620
[17] = system: T47D
[18] = system: U-251
[19] = system: RXF 393

Measured: GI50

COc1cc(/C=C/c2cc(/C=C/c3ccc(O)c(OC)c3)oc(=O)c2)ccc1O
active: [2] 0.553 µM | [15] 0.393 µM | [17] 0.272 µM
inactive: [1] 3.23 µM | [3] 4.67 µM | [4] 4.54 µM | [5] 5.09 µM | [6] 3.33 µM | [7] 3.38 µM | [8] 3.48 µM | [9] 10.5 µM | [10] 4.06 µM | [11] 32.8 µM | [12] 2.74 µM | [13] 6.32 µM | [14] 7.57 µM | [16] 3.13 µM | [18] 3.07 µM

N/C(=N\c1ccc(Cl)cc1)NS(=O)(=O)c1ccc(S(=O)(=O)c2ccccc2)s1
inactive: [1] 17.6 µM | [2] 21.5 µM | [3] 19.7 µM | [4] 24 µM | [5] 17.9 µM | [6] 17.2 µM | [8] 18 µM | [9] 26.4 µM | [10] 17.7 µM | [11] 31.9 µM | [19] 53.8 µM | [12] 15.1 µM | [13] 19.7 µM | [14] 33.8 µM | [15] 35.7 µM | [16] 19 µM | [17] 17 µM | [18] 14.4 µM

CN(C)c1ccc(/C=C2\N=C(c3ccccc3)N(c3nc4c(Cl)cc(Cl)cc4s3)C2=O)cc1
inactive: [1] 54.3 µM | [2] > 100 µM | [3] 24.5 µM | [4] 27 µM | [5] 75.7 µM | [6] 31.6 µM | [7] 21.2 µM | [8] 22.6 µM | [11] 57.9 µM | [12] 93.8 µM | [13] 54.6 µM | [14] 82.4 µM | [16] 46.6 µM | [17] 52.5 µM | [18] 55.3 µM

Clc1sc(Cl)c2c1[C@H](Br)C[C@@H]2Cl
inactive: [1] 18.2 µM | [2] 33.7 µM | [4] 22.8 µM | [5] 20.3 µM | [6] 12.5 µM | [7] 18.4 µM | [8] 19.1 µM | [10] 17.8 µM | [11] > 100 µM | [19] 26 µM | [12] 99.5 µM | [13] 29 µM | [14] 57.7 µM | [15] > 100 µM | [16] 21.6 µM | [17] 36.4 µM | [18] 27.7 µM

CN(C)CCNc1ncnc2[nH]c(-c3ccc4ccccc4c3)nc12
inactive: [1] > 100 µM | [2] > 100 µM | [4] > 100 µM | [5] > 100 µM | [6] > 100 µM | [7] > 100 µM | [8] > 100 µM | [9] > 100 µM | [10] > 100 µM | [11] > 100 µM | [19] > 100 µM | [12] > 100 µM | [13] > 100 µM | [14] > 100 µM | [16] > 100 µM | [17] > 100 µM | [18] > 100 µM

O=C1C(=Cc2ccccc2O)N=C(c2ccccc2)N1n1c(-c2ccccc2)nc2ccccc2c1=O
inactive: [1] 28.8 µM | [2] 35.5 µM | [4] 35.6 µM | [5] 19.3 µM | [6] 17.2 µM | [7] 36.8 µM | [8] 26.7 µM | [9] 31.6 µM | [10] 35.4 µM | [12] 22.8 µM | [13] 33.8 µM | [14] 48 µM | [15] 23.4 µM | [16] 45.8 µM | [17] 26.2 µM

C=CCNC1=C2C[C@@H](C)C[C@@H](OC)[C@H](OC(=O)CCN)[C@H](C)/C=C(\C)[C@@H](OC(N)=O)[C@H](OC)/C=C\C=C(/C)C(=O)NC(=CC1=O)C2=O
inactive: [1] 7.45 µM | [2] 1.21 µM | [3] 4.49 µM | [4] 14.5 µM | [5] 3.71 µM | [7] 2.98 µM | [8] 3.86 µM | [10] 3.01 µM | [11] 10.8 µM | [19] 4.66 µM | [12] 3.75 µM | [13] 14.5 µM | [14] 6.27 µM | [15] 3.18 µM | [16] 3.6 µM | [17] 4.89 µM | [18] 5.09 µM
active: [6] 0.703 µM

COc1cc(C2SC(=N)Nc3c2c(C)nn3C(=O)Cc2ccccc2)cc(OC)c1OC (configuration not stated)
inactive: [1] > 100 µM | [2] > 100 µM | [4] > 100 µM | [5] > 100 µM | [6] > 100 µM | [7] > 100 µM | [8] > 100 µM | [9] > 100 µM | [10] > 100 µM | [12] > 100 µM | [13] > 100 µM | [14] > 100 µM | [15] 28.4 µM | [16] > 100 µM | [17] > 100 µM

CC1N=C(c2ccccc2)OC1=O (configuration not stated)
inactive: [1] > 100 µM | [2] > 100 µM | [3] > 100 µM | [4] > 100 µM | [5] > 100 µM | [6] > 100 µM | [7] > 100 µM | [8] > 100 µM | [9] > 100 µM | [10] > 100 µM | [11] > 100 µM | [12] > 100 µM | [13] > 100 µM | [14] > 100 µM | [15] > 100 µM | [16] > 100 µM | [17] > 100 µM | [18] > 100 µM

NNc1ncnc2cccc(Cl)c12
inactive: [1] > 100 µM | [2] > 100 µM | [4] > 100 µM | [5] > 100 µM | [6] > 100 µM | [8] > 100 µM | [9] > 100 µM | [10] > 100 µM | [11] > 100 µM | [19] > 100 µM | [12] > 100 µM | [13] > 100 µM | [14] > 100 µM | [15] > 100 µM | [16] > 100 µM | [17] > 100 µM | [18] > 100 µM

c1ccc(-c2cc(-c3cc(-c4ccccc4)n(-c4ccccc4)n3)nn2-c2ccccc2)cc1
inactive: [1] > 100 µM | [2] > 100 µM | [4] 52 µM | [5] > 100 µM | [6] > 100 µM | [7] > 100 µM | [8] > 100 µM | [9] > 100 µM | [10] > 100 µM | [11] > 100 µM | [19] > 100 µM | [12] > 100 µM | [14] > 100 µM | [15] 56.9 µM | [17] > 100 µM | [18] > 100 µM

CC1=NC(=Cc2ccc(Cl)cc2)C(=O)N1n1c(-c2ccccc2)nc2ccccc2c1=O
inactive: [1] 40.6 µM | [2] 38.1 µM | [4] 18.1 µM | [5] 39.4 µM | [6] 28.2 µM | [7] 43.4 µM | [8] 34.5 µM | [9] > 100 µM | [10] 26.3 µM | [12] 40.9 µM | [13] 51.4 µM | [14] 48.6 µM | [15] 38.6 µM | [16] 57.1 µM | [17] 25.4 µM

CC(C)(C)OC(=O)n1c2ccccc2c2c(=O)nc(N3CCCCC3)sc21
inactive: [1] > 100 µM | [2] > 100 µM | [3] > 100 µM | [4] > 100 µM | [5] > 100 µM | [7] > 100 µM | [8] > 100 µM | [10] > 100 µM | [11] > 100 µM | [12] > 100 µM | [13] > 100 µM | [14] > 100 µM | [15] > 100 µM | [16] > 100 µM | [17] > 100 µM | [18] > 100 µM

COc1ccc2c(c1)c1c(n2CCN2CCOCC2)-c2cccc(OC)c2CC1
inactive: [1] 37.2 µM | [2] 62.4 µM | [3] 45.8 µM | [4] 35 µM | [5] 26.5 µM | [6] 23.5 µM | [7] 44 µM | [8] 23.2 µM | [9] 24.4 µM | [10] 52.8 µM | [11] 55.2 µM | [19] 24.2 µM | [12] 30.7 µM | [13] 54.1 µM | [16] 36.8 µM | [17] 59 µM | [18] 40.1 µM

O=C(Cn1c(C(=O)/C=C/c2ccc(Cl)c(Cl)c2)nc2ccccc21)c1ccccc1
inactive: [1] 32.1 µM | [2] 32.9 µM | [3] 25.2 µM | [4] 27.3 µM | [5] 23.2 µM | [6] 26.9 µM | [7] 19.1 µM | [8] 27.9 µM | [9] 31.7 µM | [10] 31.6 µM | [11] 17.6 µM | [19] 24 µM | [13] 35.3 µM | [14] 27.4 µM | [16] 33.3 µM | [17] 31 µM | [18] 26.8 µM

COc1cc2c(cc1C)NC(=O)/C2=C/c1c(Cl)n(-c2ccccc2)c2ccccc12
inactive: [1] 17.3 µM | [2] 31.8 µM | [3] 23 µM | [4] 20 µM | [5] 27.4 µM | [6] 10.2 µM | [7] 15.1 µM | [8] 4.82 µM | [10] 16.4 µM | [11] 29.5 µM | [19] 11.2 µM | [12] 11.3 µM | [13] 21.8 µM | [14] 45.7 µM | [15] 65 µM | [16] 13.9 µM | [17] 4.54 µM | [18] 16.1 µM
